This data set can be described thus: Solubility comparison at room temperature. The class given is physicochemical. Conditions: organic solvent or mixture. The text has this: Solubility comparison at room temperature (values in mg/l): […]

Converted amounts (≈) assume the structure as drawn.

By solubility is commonly meant the concentration that dissolves in the medium under given conditions. In the case of `C[C@@H](c1ncncc1F)[C@](O)(Cn1cncn1)c1ccc(F)cc1F` [Crystalline Form B, (2R,3S)-2-(2,4-diflurophenyl)-3-(5-fluoropyrimidin-4-yl)-1-(1H-1,2,4-triazol-1-yl) -butan-2-ol], the solubility (Acetone) is 250 µg/mL (≈ 716 µM) and the solubility (Methanol) was 125 µg/mL (≈ 358 µM).

For the origin of these results see patent US8039619B2, “Process for preparing (2R,3S/2S,3R)-2-(2,4-difluorophenyl)-3-(5-fluoropyrimidin-4-yl)-1-(1H-1,2,4-triazol-1-yl)butan-2-ol” (Dr. Reddy's Laboratories Limited, priority 2004, dated 2011).
